Experimental data reported in patent publication US10954287B2, “Ras binding peptides and methods of use” (Ra Pharmaceuticals, Inc., priority 2016, dated 2021).

How the values were obtained:
[1] = molecular target: T1, H-Ras (Homo sapiens, UniProt P01112, G12V); experiment: Differential scanning fluorimetry (DSF); assay type: binding; conditions: Ras 5 μM, peptide 20 μM, FIG. 8A
T1 construct: made in house; host or cells: E. coli BL21 (DE3)
Protocol: Differential scanning fluorimetry (DSF) is based on denaturation of the protein in the absence or presence of a ligand, exposing hydrophobic residues that can be detected with high sensitivity with a fluorescent dye. […] DSF was performed on a CFX 96-well plate, real-time PCR instrument (Bio-Rad, Hercules, Calif.) according to Nettleship et al. [Nettleship, J. E., Brown, J., Groves, M. R., and Geerlof, A. (2008) Methods for protein characterization by mass spectrometry, thermal shift (ThermoFluor) assay, and multiangle or static light scattering. Methods Mol. Biol. 426: 299-318), the contents of which are incorporated herein by reference in their entirety]. SYPRO orange was purchased from Life Technologies (Carlsbad, Calif.). After incubation of Ras (5 μM) and peptide (20 μM) at room temperature for 15 minutes in 20 mM Tris-HCl (pH 8), 150 mM NaCl, 1 mM MgCl2, 2 mM DTT, and 0.2% dimethyl sulfoxide, SYPRO orange was added to the final concentration of 10× (original stock at 5000×). The mixture was subsequently heated in Bio-Rad CFX 96 PCR instrument from 25 to 95° C. in increments of 0.3° C./10 s. Fluorescence intensity was measured using excitation and emission wavelengths of 483 and 610 nm, respectively. Changes in protein thermal stability (ATm) upon peptide binding were analyzed by using Bio-Rad CFX Manager Software provided by the manufacturer.

[2] = molecular target: T2, SOS^cat catalyzed nucleotide exchange of H-Ras-GDP (Homo sapiens, UniProt P01112, G12V); experiment: SOS-mediated nucleotide exchange (MANT-GMPPNP fluorescence); assay type: biochemical; conditions: 25 μM of R4000, 1 μM H-Ras-GDP, 2 μM SOS^cat
T2 construct: made in house; host or cells: E. coli BL21 (DE3)
Protocol: A sequence encoding the Ras exchanger motif and Cdc25 domains of human guanine nucleotide exchange factor SOS1 (amino acids 564-1049, designated as SOS^cat hereafter) was synthesized at GeneArt (Life Technologies, Carlsbad, Calif.) and subcloned into the pET28a expression vector (Novagen, Darmstadt, Germany) for expression in E. coli. The identity of the expression construct was confirmed by DNA sequencing. The plasmid encoding SOS^cat was transformed into BL21 (DE3). Cells were grown at 37° C. to an absorbance of 0.5 (OD600) in LB media containing 25 μg/mL of kanamycin and then transferred to 20° C. prior to induction with 0.1 mM IPTG. Cells were harvested 15 hours after induction and the pellet was lysed with B-PER Bacteria Extraction Reagent (Pierce/Thermo Scientific, Rockford, Ill.) containing EDTA-free protease inhibitors. […]
The SOS^cat protein was then dialysed into a buffer containing 25 mM Tris-HCl, pH 7.5, 150 mM NaCl, 5 mM MgCl2, and 1 mM DTT and stored at −80° C. […] Changes in fluorescence were measured by a fluorescence spectrometer (SpectraMax M3; Molecular Devices) in a black 96 half-area well plate (Corning 3686). Fluorescence was excited at λ=370 nm and emission was monitored at λ=450 nm every 20 s for over 30 minutes at 22° C. The nucleotide exchange rates were expressed as Vmax (milli-units per minute).

[3] = molecular target: T3, GST-tagged RAF-RBD and biotinylated H-Ras loaded with GMPPNP (Homo sapiens, UniProt P01112, G12V); experiment: TR-FRET of the interaction between GST-tagged RAF-RBD and biotinylated H-Ras; assay type: binding; conditions: 12.5 nM Bio-H-Ras GMPPNP, 10 nM GST-RAF-RBD, FIG. 8C
T3 construct: made in house; host or cells: E. coli BL21 (DE3)
Protocol: The interaction between GST-tagged RAF-RBD and biotinylated H-Ras (Bio-H-Ras) loaded with GMPPNP was detected using TR-FRET. Assays were performed in 384 well plates (Proxiplate-384 plus, Perkin Elmer, Waltham, Mass.). Bio-H-Ras GMPPNP was diluted in assay buffer (50 mM Tris-HCl, pH 7.5, 5 mM MgCl2, 0.0025% Tween-80, 1 mM DTT, and 50 nM GMPPNP) at a final concentration of 12.5 nM. R4000 was serially diluted in DMSO, then diluted in assay buffer and incubated with Bio-H-Ras GMPPNP for 30 minutes at room temperature (1% DMSO final). GST-RAF-RBD was added to the assay (10 nM final) and incubated 60 minutes at room temperature. Europium cryptate conjugated-anti-GST (donor; Perkin Elmer, Waltham, Mass.) and streptavidin conjugated to SureLight-Allophycocyanin (acceptor; Perkin Elmer, Waltham, Mass.) was added to the wells at final concentrations of 1 nM and 1.25 nM, respectively. Reaction mixtures were incubated at room temperature for 2 hours then detected using an EnVision Multilabel Plate Reader (Perkin Elmer, Waltham, Mass.) with excitation at 340 nm and emission at 615 nm (donor) and 665 nm (acceptor). FRET ratios (615 emission/665 emission) were calculated per well. Data was analyzed using GraphPad Prism, and IC50 values were generated by fitting dose response data to a 4 parameter fit sigmoidal dose response curve. […]

[4] = Compound stability in rat plasma; assay type: in vitro ADME; conditions: serum (method text and assay name say plasma), 37° C., pH 7.4
Protocol: Compounds were assayed for stability in mouse and rat plasma under the following conditions. Plasma was adjusted to pH 7.4. DMSO stocks at 10 mM concentration were prepared for the test compounds. Aliquots of the DMSO solutions were dosed into 1 mL of plasma, which had been pre-warmed to 37° C., at a final test compound concentration of 10 μM. The vials were kept in a benchtop Thermomixer® (Eppendorf, Hauppauge, N.Y.) for the duration of the experiment. Aliquots (100 μL) were taken at each timepoint and added to a 96-well plate that had been pre-filled with 300 μL of an acetonitrile solution containing mixture of the internal standards (metoprolol, propranalol and warfarin each at 500 ng/mL). Samples were stored at 4° C. until the end of the experiment. After the final timepoint was sampled, the plate was mixed and then centrifuged at 3,000 rpm for 10 minutes. Aliquots of the supernatant were removed and analyzed by LC-HRAMS.

CCC[C@H](NC(C)=O)C(=O)N[C@H]1CSCc2cccc(c2)CSC[C@@H](C(N)=O)NC(=O)CN(C)C(=O)[C@H](Cc2ccc(F)cc2)N(C)C(=O)[C@H](Cc2ccc(O)cc2)NC(=O)[C@H](Cc2c[nH]c3ncccc23)NC(=O)[C@H](c2ccccc2)NC(=O)[C@H](C)N(C)C(=O)[C@H](Cc2cnc[nH]2)NC(=O)[C@H](CCCCN)NC(=O)[C@H](C(C)(C)C)NC(=O)[C@H](Cc2ccc(O)cc2)NC1=O (relative stereo) [Compound R4000, ACE-NVA-CYS*-TYR-TBG-LYS-HIS-NMA-PHG-7AW-TYR-MFF-SAR-CYS*-NH2]
Δ Tm [1]: +11 °C
effect on the rate of SOS catalyzed nucleotide exchange [2]: does not effect the rate of exchange
blocking of H-Ras binding to RAF [3]: does not block binding to RAF
half-life at 10 μM [4]: 2.1 h
